Reference: patent US8092789B1, “Indian meal moth attractant” (The United States of America, as represented by the …, priority 2009, dated 2012)

System: Plodia interpunctella adult females
Test: flight tunnel bioassay of attraction (upwind progress score)
Format: in vivo
Parameters: key to Score (flight tunnel bioassay): 0.25 per quarter line crossed; final 0.25 for contacting test subject
Conditions: for Score (flight tunnel bioassay): day 22 Plodia females, ten females per test, observed ten minutes, 0.25 per quarter line crossed and for contact
Method: All tests were conducted in a clear, acrylic flight chamber 75 cm (L), 22 cm (W), 24 cm (H). Room air was pushed through the chamber with a 115 volt, 0.35 Amp motor-driven roller fan. Air speed was maintained at 0.4 m/sec. The chamber was positioned horizontally on a table in a walk-in environmental chamber maintained at 30° C. and 65% R.H. The only light was provided by a 25 Watt red filtered incandescent bulb centrally positioned 90 cm above tunnel floor and providing 9.0 Lux at the floor center.
Insects used were laboratory reared Plodia interpuctella. Ten 4-day old adult females from a general rearing box were selected and transferred into a 7 dram screened plastic vial for each test. Tests were performed only during the first four hours of the scotophase. Test subjects consisted of either natural products held in a glass Petri dish (Kimax, 5 cm diameter) or liquid volatiles pipetted onto a filter paper disc (Whatman #3, 2.3 cm) held off the floor by a plastic disc (5 cm diameter). These were placed upwind. A test began when the vial containing the moths was placed on the floor down-wind and the lid of the vial was removed. Distance between vial and test material was 62 cm. […] A final 0.25 was scored for actually contacting the test subject. Individual moths were tested only once.
Volatiles from natural products were collected for twenty-four hours by passing commercial, compressed nitrogen through a 150 cm^3 glass collection chamber (Analytical Research Systems) connected by tubing to an inert filter trap of 20 mg SuperQ (Alltech Associates). The collected volatiles were eluted with 150 ul dichloromethane and then bioassayed in the flight tunnel and analyzed by GC-MS. The SuperQ filter traps were rinsed with 200 ul dichloromethane immediately before each use.

Compound	Score (flight tunnel bioassay) (Table 1)	Score (flight tunnel bioassay) (Table 2)	attractiveness alone (dilutions in dichloromethane, FIG. 3)
CCCCC(C)=O [2-hexanone]	3.63	3.63	–
CC1=CC[C@H]2[C@H]3[C@@H]1[C@]2(C)CC[C@H]3C(C)C [a-copaene]	3.07	3.07	–
CC1(C)C2CCC1(C)C(O)C2 (stereo not drawn) [borneol]	2.83	2.83	–
Cc1ccc(C(C)C)cc1 [cymene]	3.00	3.00	–
CCCCCC=CCCC(=O)OCC [ethyl 4-decenoate]	3.50	3.50	–
CCOc1cc(C=O)ccc1O [ethyl vanillin]	2.63	2.63	–
CCCCCCOC(C)=O [hexyl acetate]	3.60	3.60	–
CCCCCCCC(=O)OC [methyl octanoate]	2.91	2.91	–
C=CC(=C)CCC=C(C)C [myrcene]	2.95	2.95	–
CCC/C=C/CO [trans-2-hexen-1-ol]	3.00	3.00	–
CCCCCCCCCCC [undecane]	–	–	unattractive alone
